≈ marks a conversion by molar mass, not a printed value. Where two headings read alike, the source gives them in different places.
What was measured:
Assay type in all cases: cell-based, human
Hela cells = test: MTT survival assay, cervical cancer line (Hela cells)
Procedure: (§1) The effect of the above identified compounds on anti-tumor activity in human carcinoma cells was determined by the MTT survival assay. The MTT assay is a commonly used method in evaluation of cell survival, based on the ability of viable cells to convert MTT (MTT, Sigma, Cat No. 044K5307), a soluble tetrazolium salt [3-(4,5-dimethylthuazole-2-yl)-2,5 diphenyl tetrazolium bromide], into an insoluble formazan precipitate, which is quantitated by spectrophotometry following solubilization in dimethyl sulfoxide (DMSO).
(§2) In brief, different carcinoma cells were treated with negative control, various test articles at different concentration, and positive control (DDP), in 96-well tissue culture dishes. Each test article at different concentration is repeated 3 times.
(§3) Different carcinoma cells were diluted with 10% FBS and RPM1640 or MEM media to a concentration of 3-5×10^4 per ml suspension. 100 microliter of cells were incubated in each well in 96-well tissue culture dishes at 37 C. The cells were incubated at 37 C on the first day. On the second day, media supernatant was removed and replaced with media and different concentration of test articles (100 microliter in each well). Three Negative control wells and three positive control (DDP) wells were also included. The 96-well plate were incubated at 37 C for another 68 hours. After 68 hours, supernatant of each well was removed. 100 microliter of 1 mg/ml MTT diluted in PBS was injected into each well. The cells were incubated at 37 C for another 4 hours. The cells were then solubilized in 150 microliter DMSO, mixed for 10 minutes and absorbance readings were taken using Microplate reader Bio-Rad Model 550 at 570 nm. IR (cell growth inhibition rate) % was calculated as (OD570 of negative control-OD570 with test article)/OD570 of negative control. IC50 (cell 50% inhibition concentration) at 95% confidence level was calculated with Bliss method.

MCF-7 = test: MTT survival assay, breast cancer cell line (MCF-7); conditions: for IC50: Homo sapiens
Procedure: as §1, §2, §3

A459 = test: MTT survival assay, lung cancer cell line (A459); conditions: A459
Procedure: as §1, §2, §3

SMMC-7721 = test: MTT survival assay, liver cancer cell line (SMMC-7721); conditions: SMMC-7721
Procedure: as §1, §2, §3

SKOV3 = test: MTT survival assay, ovarian cancer cell line (SKOV3); conditions: SKOV3 (first table)
Procedure: as §1, §2, §3

U251 = test: MTT survival assay, glioma cell line (brain tumor U251); conditions: U251 (first table)
Procedure: as §1, §2, §3

COc1ccccc1NC(=O)CSc1nc(-c2ccccc2)nc2ccccc12 [Mol 44]
IR (%) (Hela cells; 0.07 μg/ml): 19.3%
OD(A570 nm) (Hela cells; 0.07 μg/ml): 0.599 ± 0.109
IR (%) (Hela cells; 0.21 μg/ml): 11.8%
OD(A570 nm) (Hela cells; 0.21 μg/ml): 0.655 ± 0.007
OD(A570 nm) (Hela cells; 0.62 μg/ml): 0.765 ± 0.200
IR (%) (Hela cells; 1.85 μg/ml): 0.8%
OD(A570 nm) (Hela cells; 1.85 μg/ml): 0.737 ± 0.113
IR (%) (Hela cells; 5.56 μg/ml): 9.7%
OD(A570 nm) (Hela cells; 5.56 μg/ml): 0.671 ± 0.044
IR (%) (Hela cells; 16.67 μg/ml): 7.4%
OD(A570 nm) (Hela cells; 16.67 μg/ml): 0.688 ± 0.045
IR (%) (MCF-7; 1.56 μg/ml): 13.3%
OD(A570 nm) (MCF-7; 1.56 μg/ml): 0.787 ± 0.176
IR (%) (MCF-7; 3.125 μg/ml): 12.8%
OD(A570 nm) (MCF-7; 3.125 μg/ml): 0.811 ± 0.109
IR (%) (MCF-7; 6.25 μg/ml): 10.2%
OD(A570 nm) (MCF-7; 6.25 μg/ml): 0.791 ± 0.151
IR (%) (MCF-7; 12.5 μg/ml): 12.4%
OD(A570 nm) (MCF-7; 12.5 μg/ml): 0.791 ± 0.151
IR (%) (MCF-7; 25 μg/ml): 34.9%
OD(A570 nm) (MCF-7; 25 μg/ml): 0.587 ± 0.030
IR (%) (MCF-7; 50 μg/ml): 41.6%
OD(A570 nm) (MCF-7; 50 μg/ml): 0.527 ± 0.035
IC50 (MCF-7; MCF7, 95% confidence limits of IC50, read-out: IC50 (95% confidence level), interval): 71.3 to 551 µg/mL (≈ 178 to 1370 µM)
IC50 (MCF-7; MCF7, Bliss method, unit not printed (concentrations in μg/ml), read-out: IC50 (95% confidence level)): 145 µg/mL (≈ 362 µM)
IR (%) (A459; 1.56 μg/ml): 0.6%
OD(A570 nm) (A459; 1.56 μg/ml): 0.634 ± 0.009
IR (%) (A459; 3.125 μg/ml): −23.3%
OD(A570 nm) (A459; 3.125 μg/ml): 0.786 ± 0.048
IR (%) (A459; 6.25 μg/ml): −6.8%
OD(A570 nm) (A459; 6.25 μg/ml): 0.680 ± 0.015
IR (%) (A459; 12.5 μg/ml): 8.1%
OD(A570 nm) (A459; 12.5 μg/ml): 0.586 ± 0.051
IR (%) (A459; 25 μg/ml): 21.0%
OD(A570 nm) (A459; 25 μg/ml): 0.504 ± 0.046
IR (%) (A459; 50 μg/ml): 42.3%
OD(A570 nm) (A459; 50 μg/ml): 0.368 ± 0.039
IC50 (A459; Homo sapiens, Bliss method, unit not printed (concentrations in μg/ml), read-out: IC50 (95% confidence level)): 150 µg/mL (≈ 374 µM)
IR (%) (SMMC-7721; 1.56 μg/ml): 37.6%
OD(A570 nm) (SMMC-7721; 1.56 μg/ml): 0.275 ± 0.004
IR (%) (SMMC-7721; 3.125 μg/ml): 27.2%
OD(A570 nm) (SMMC-7721; 3.125 μg/ml): 0.321 ± 0.088
IR (%) (SMMC-7721; 6.25 μg/ml): 38.3%
OD(A570 nm) (SMMC-7721; 6.25 μg/ml): 0.272 ± 0.019
IR (%) (SMMC-7721; 12.5 μg/ml): 11.1%
OD(A570 nm) (SMMC-7721; 12.5 μg/ml): 0.392 ± 0.039
IR (%) (SMMC-7721; 25 μg/ml): 15.4%
OD(A570 nm) (SMMC-7721; 25 μg/ml): 0.373 ± 0.019
IR (%) (SMMC-7721; 50 μg/ml): 21.6%
OD(A570 nm) (SMMC-7721; 50 μg/ml): 0.345 ± 0.025
IC50 (SKOV3; Homo sapiens, SK-OV-3, Bliss method, unit not printed (concentrations in μg/ml), read-out: IC50 (95% confidence level)): 60 µg/mL (≈ 149 µM)
IR (%) (SKOV3; 1.56 μg/ml): 27.9%
OD(A570 nm) (SKOV3; 1.56 μg/ml): 0.505 ± 0.029
IR (%) (SKOV3; 3.125 μg/ml): 23.9%
OD(A570 nm) (SKOV3; 3.125 μg/ml): 0.533 ± 0.017
IR (%) (SKOV3; 6.25 μg/ml): 23.0%
OD(A570 nm) (SKOV3; 6.25 μg/ml): 0.539 ± 0.023
IR (%) (SKOV3; 12.5 μg/ml): 25.1%
OD(A570 nm) (SKOV3; 12.5 μg/ml): 0.525 ± 0.035
IR (%) (SKOV3; 25 μg/ml): 39.1%
OD(A570 nm) (SKOV3; 25 μg/ml): 0.426 ± 0.008
IR (%) (SKOV3; 50 μg/ml): 52.4%
OD(A570 nm) (SKOV3; 50 μg/ml): 0.333 ± 0.008
IC50 (U251; Homo sapiens, U-251, Bliss method, unit not printed (concentrations in μg/ml), read-out: IC50 (95% confidence level)): 129 µg/mL (≈ 322 µM)
IR (%) (U251; 1.56 μg/ml): 9.9%
OD(A570 nm) (U251; 1.56 μg/ml): 0.790 ± 0.086
IR (%) (U251; 3.125 μg/ml): 19.6%
OD(A570 nm) (U251; 3.125 μg/ml): 0.705 ± 0.061
IR (%) (U251; 6.25 μg/ml): 1.2%
OD(A570 nm) (U251; 6.25 μg/ml): 0.866 ± 0.090
IR (%) (U251; 12.5 μg/ml): 7.5%
OD(A570 nm) (U251; 12.5 μg/ml): 0.811 ± 0.050
IR (%) (U251; 25 μg/ml): 15.9%
OD(A570 nm) (U251; 25 μg/ml): 0.737 ± 0.067
IR (%) (U251; 50 μg/ml): 24.9%
OD(A570 nm) (U251; 50 μg/ml): 0.659 ± 0.047
